Source: patent US20250144055A1, “METHOD AND COMPOSITION FOR REDUCING MYOPIA PROGRESSION” (THE HONG KONG POLYTECHNIC UNIVERSITY, priority 2023, published 2025)
Where “and” joins values, the source holds several entries; their conditions need not be identical. Identical values can stand only once. Like-named read-outs stand apart in the source and are kept apart here.

Columns and labels:
[1] = system: lens-induced myopia (LIM) chicks; test: unilateral lens-induced myopia (LIM) chick model, intravitreal injection; type: in vivo, White Leghorn chicks (Gallus gallus)
Protocol: To create a lens-induced myopia (LIM) animal model, concave lenses of −5 D were applied to the White Leghorn chicks (Gallus gallus), hatched from specific pathogen-free eggs (SPF, Jinan, China), until they were ten days old (PN10, baseline). All the animals were raised in standard cages at 25° C. with sufficient food and water daily under the 12 h:12 h light/dark cycle. The central ambient luminance over the cages was maintained at around 260 lux.
Turning to FIG. 1, starting from ten days old (PN10), the LIM chicks received four intravitreal injections in four consecutive days, i.e., PN10, PN11, PN12 and PN13 (s101). LIM chicks were randomly assigned to two groups, including LIM chicks (n=6) with vehicle injection (1% DMSO with 1% β-CDs) (101b) and LIM chicks (n=7) with celastrol injection (74 μM celastrol dissolved in 1% DMSO with 1% β-CDs) (101a), and no gender preference was selected in the experimental groupings. β-CDs were selected as a drug carrier of celastrol because of its doughnut-shaped cavities with hydrophilic outer and hydrophobic inner surfaces to form a complex with the celastrol to enhance the solubility, stability and permeation of celastrol in vivo. The freshly prepared solution (10 μl) was injected monocularly with a 0.3-mL syringe (31-gauge needle, BD Medical, Le Pont deClaix, France) into the vitreous through the sclera, choroid, and retina close to the margin of the upper orbit. Immediately following the first injection on PN10, the LIM chicks' right (or left) eyes were assigned to −5 D lenses (treated eyes 102a), and no lens was attached to the fellow eyes (control eyes 102b) (s102). The treated eyes 102a covered with lens in each LIM chick (unilateral LIM) received the subsequent celastrol injection 101a or vehicle 101b on PN11, PN12 and PN13, whereas there was no treatment for the contralateral (control) eye 102b.
After 7-day LIM (PN17), the lenses were removed for 2 hours (s103). The refractive error and ocular parameters were recorded separately at baseline (PN10), 7-day LIM (PN17), and after 2-hour recovery (PN17+2 hr) using the steak retinoscopy and high-frequency ultrasonography (s104). Refractive errors were detected using a streak retinoscope, and ocular parameters were measured using a high-frequency A-scan ultrasound system with a 30 MHz transducer (Panametrics, Inc., Waltham, MA), respectively, before and after treatments. The spherical equivalent (S.E.) was calculated from the refractive status (S.E.=spherical power+½ cylindrical power). Axial length (AL) was defined from the front of the cornea to the back of the vitreous chamber.
Biometric data obtained from unilateral LIM chicks treated with or without celastrol according to the scheme depicted in Example 1 and FIG. 1 were analyzed. First of all, after the 7-day lens treatment period (PN1, the interocular differences (differences between the lens-treated eyes and the contralateral fellow eyes) were calculated for the three ocular parameters (refractive error, vitreous chamber depth, and axial length), and the results are shown in FIGS. 2A-2C, respectively. Because choroid thickness change is believed to be an indicator of progression to myopia, the choroidal thickness was also measured after a 2-hour recovery, and the results are shown in FIG. 2D. The mean interocular differences and choroidal thickness changes are presented with ±SD. The significance between celastrol and vehicle groups was analyzed using an unpaired t-test with equal variance.

[2] = body weight of unilateral LIM chicks after 7-day LIM; type: in vivo, White Leghorn chicks (Gallus gallus); conditions: after 7-day LIM (PN17), 74 μM intravitreal x4 days
Excerpt: The present disclosure provides a method for reducing myopia progression by administering a therapeutically effective amount of celastrol via intravitreal injection to a vitreous or via a non-invasive route, such as topically to the eye, e.g., as an eye drop containing a therapeutically effective amount of celastrol administered to a cornea or conjunctiva of a subject's eye. […] Change of body weight before and after 7-day LIM and choroidal thickness of a uvea of the celastrol group after 2-hr removal of the lens from the unilateral LIM chicks following the 7-day LIM were also quantified to show no adverse side effect but an increase in choroidal thickness induced by a low-dose celastrol. […] For instance, if celastrol is administered via the intravitreal injection, based on the difference in vitreous volume between the animal model tested and the human being, the human equivalent dose of celastrol could be determined. Taking chicken's vitreous volume as an illustrative example, if the celastrol is administered at about 74 μM via intravitreal injection to the chicken's vitreous, assuming that the vitreous volume of a chicken in general is about 200 μl, based on an estimated human vitreous volume (about 4.5 ml), the human equivalent dose of celastrol via intravitreal injection is determined to be about 1.665 mM. […]

[3] = system: retinal ganglion cells (RGCs); conditions: cited from earlier work
[4] = system: neuroendocrine chromaffin cells; conditions: 1 μM celastrol; cited from earlier work

SMILES: CC1=C(O)C(=O)C=C2C1=CC=C1[C@@]2(C)CC[C@@]2(C)[C@@H]3C[C@](C)(C(=O)O)CC[C@]3(C)CC[C@]12C [celastrol]
- interocular difference in refractive error (spherical equivalent), mean±SD ([1]; 74 μM celastrol, 10 μl intravitreal q.d. PN10-PN13, after 7-day LIM (PN17), lens-treated minus fellow eye, n=7): −1.68±2.03 D
- choroidal thickness change, mean±SD ([1]; 74 μM intravitreal x4 days, after 2-hour recovery from 7-day LIM (PN17+2 hr), P=0.072 vs vehicle): 65.98±20.89 μm
- interocular difference in axial length (AL), mean±SD ([1]; 74 μM intravitreal x4 days, after 7-day LIM (PN17), A-scan, P=0.054 vs vehicle): 0.088±0.109 mm
- interocular difference in vitreous chamber depth (VCD), mean±SD ([1]; 74 μM intravitreal x4 days, after 7-day LIM (PN17), A-scan, n=7): 0.190±0.105 mm
- inhibition at 74 µM ([1]; Gallus gallus, 168 h, celastrol group vs vehicle group, 74 μM intravitreal, 7-day LIM, read-out: inhibition of myopia based on refractive error data): ~46.3%
- averaged shift of relative myopia in interocular difference, vehicle group versus celastrol group (mean) ([1]; after 7-day LIM (PN17)): −1.45 D
- enlargement of VCD in vehicle group compared with celastrol group ([1]; after 7-day LIM (PN17), P>0.05): 0.070 mm
- numerical elongation of AL in vehicle group compared with celastrol group (mean) ([1]; after 7-day LIM (PN17), P>0.05): 0.174 mm
- inhibition of myopia based on axial length data ([1]; celastrol group vs vehicle group, 74 μM intravitreal, 7-day LIM): ~66.4% and ~46.2%
- myopia progression ([1]; intravitreal injection at the dose tested (74 μM)): could suppress myopia progression
- body weight compared with vehicle group [2]: no retardation of growth regarding body weight
- increase in average number of retinal ganglion cells (RGCs) compared to controls ([3]; injection of 1 mg/kg celastrol): approximately 80%
- increase in average number of retinal ganglion cells (RGCs) compared to controls ([3]; injection of 5 mg/kg celastrol): ~78%
- increase in dopamine [4]: 6 fold
